Experimental data reported in PubChem BioAssay (NCI).
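Five concentrations, 48 hours, 96-well plates. TGI denotes the concentration required for complete inhibition of growth.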

Tests used:
Test in all cases: inhibition of tumour cell growth, NCI panel, 48 h
MALME-3M melanoma = system: MALME-3M melanoma
OVCAR-4 ovarian = system: OVCAR-4 ovarian
SN12C renal = system: SN12C renal
SW-620 colon = system: SW-620 colon
U251 CNS = system: U251 CNS
IGROV1 ovarian = system: IGROV1 ovarian
TK-10 renal = system: TK-10 renal
RPMI-8226 leukemia = system: RPMI-8226 leukemia
SNB-19 CNS = system: SNB-19 CNS
UACC-62 melanoma = system: UACC-62 melanoma

Row | Compound | TGI (MALME-3M melanoma) [µM] | TGI (OVCAR-4 ovarian) [µM] | TGI (SN12C renal) [µM] | TGI (SW-620 colon) [µM] | TGI (U251 CNS) [µM] | TGI (IGROV1 ovarian) [µM] | TGI (TK-10 renal) [µM] | TGI (RPMI-8226 leukemia) [µM] | TGI (SNB-19 CNS) [µM] | TGI (UACC-62 melanoma) [µM]
1 | C[N+](C)=c1ccc2nc3c(ccc4ccccc43)oc-2c1 | 26.1 | 26.3 | 31.8 | 10.5 | 29.5 | 17.2 | 31.1 | > 64.7 | 31.6 | 16.3
2 | COC(=O)CCCC1(CCCC(=O)OC)CCCCCCCCC(CCCC(=O)OC)(CCCC(=O)OC)C(=O)C1=O | 60.1 | 54.7 | > 100 | > 100 | 40.7 | 47.6 | > 100 | > 100 | > 100 | 39.5
3 | CO[C@H]1CC[C@]2(C)C3=CC[C@@]4(C)C(CC[C@@H]4C(C)CC[C@@H](C)C(C)C)C(=CCC2C1)O3 (stereo not given in full) | > 25 | > 25 | > 25 | > 25 | > 25 | > 25 | > 25 | > 25 | > 25 | > 25
4 | C[C@]12C(=O)C=CCC1=CC[C@@H]1[C@@H]2[C@H]2CC3(O)C(=O)O[C@@]4(C)[C@H]5C[C@@]6(C)[C@@H]7[C@@]2(O)[C@]1(OC[C@H]6C(=O)O5)O[C@]734 (stereo not given in full) | > 100 | > 100 | > 100 | > 100 | > 100 | > 100 | > 100 | > 100 | > 100 | > 100
5 | COCCOC(C)C(=O)C(O)S(=O)(=O)O (stereo not given) | > 100 | > 100 | > 100 | > 100 | > 100 | > 100 | > 100 | > 100 | > 100 | > 100
6 | O=C(CNc1nccs1)Nn1cnc2ccc(S(=O)(=O)Nc3nccs3)cc2c1=O | > 100 | > 100 | > 100 | > 100 | > 100 | > 100 | > 100 | > 100 | > 100 | > 100
7 | Nc1nc(Nc2ccc(Cl)cc2)sc1C(=O)c1c[nH]c2ccccc12 | 31.2 | 51.7 | 29 | > 100 | 25.1 | 37.1 | 31.8 | > 100 | 38 | 28
8 | N#CCCN(CCC#N)c1ccc(/C=C2\SC(=S)NC2=O)cc1 | > 100 | > 100 | > 100 | > 100 | 47 | > 100 | > 100 | > 100 | > 100 | > 100
9 | O=C(N/N=C\c1cccs1)c1ccncc1 | > 100 | > 100 | > 100 | > 100 | > 100 | > 100 | > 100 | > 100 | > 100 | > 100
10 | C/C(=N/NC(=S)N(C)C)c1ccccc1O | > 76.1 | > 85 | > 100 | > 100 | > 100 | > 100 | > 100 | > 100 | > 100 | 27
11 | N#C/C=c1/c2ccccc2n2nc3ccccc3c12 | > 100 | 31.5 | > 100 | > 100 | 30.9 | 58.3 | 30.5 | > 100 | 40 | > 100
12 | COc1ccc(OC)c(NC2=NCCO2)c1 | > 100 | > 100 | > 100 | 28.2 | > 100 | > 100 | > 100 | > 100 | 22.7 | > 100
13 | CCOC(=O)C1(C#N)C2(C#N)C(N)=NC(ON=C(C)C)(ON=C(C)C)C12C#N (stereo not given) | > 100 | > 100 | > 100 | > 100 | > 100 | > 100 | > 100 | > 100 | > 100 | > 100
14 | N=c1n(CC(=O)NC23CC4CC(CC(C4)C2)C3)c2ccccc2n1CC(=O)NC12CC3CC(CC(C3)C1)C2 | 3.04 | 3.38 | 3.45 | 3 | 3.02 | 3.1 | 3.08 | 6.07 | 3.02 | 3.45
15 | C/C(=N/NC(=S)Nc1cccc(Cl)c1)c1ccccn1 | 10 | 16.9 | 7.04 | 17.9 | 8.26 | 9.29 | 10.4 | 17.8 | 16.9 | 2.49
16 | c1ccc(C(c2cccc3c2ccc2ccccc23)C(c2ccccc2)c2cccc3c2ccc2ccccc23)cc1 (stereo not given) | > 100 | > 100 | > 100 | > 100 | > 100 | > 100 | > 100 | > 100 | > 100 | > 100
17 | CCn1c(-c2ccc(OC)cc2)nc2c1C(=O)c1ccccc1C2=O | > 100 | > 100 | > 100 | > 100 | > 100 | > 100 | > 100 | > 100 | > 100 | > 100
18 | COC1=CC(=O)c2c(cc(COP(N)(=O)N(CCCl)CCCl)n2C)C1=O (stereo not given) | 3.15 | 16.3 | 1.31 | 4.21 | 6.77 | 2.66 | 5.61 | 4.73 | 14.2 | 2.16
19 | COc1cc(NS(C)(=O)=O)ccc1NCc1cnc2ccc3[nH]cccc3c12 | 43.4 | 65.7 | 67.4 | > 92 | > 81.2 | > 100 | > 81.8 | 29.8 | > 89.1 | 35.8
20 | C[C@@H](NC(=O)[C@@H]1C[C@]1(C)CO)c1cccc2ccccc12 | > 100 | > 100 | > 100 | > 100 | > 100 | > 100 | > 100 | > 100 | > 100 | > 100
21 | CC(=O)OC12CC(C(F)(F)F)(C(F)(F)F)OC1(OC(C)=O)CC(C(F)(F)F)(C(F)(F)F)O2 (stereo not given) | > 100 | > 100 | > 100 | > 100 | 19.2 | > 100 | > 100 | 7.61 | > 100 | > 100
22 | O=C(NC12CC3CC(CC(C3)C1)C2)C(=O)c1c[nH]c2ccc(Br)cc12 | 68.6 | 35.5 | 61.2 | > 100 | 49.2 | > 100 | 92.6 | > 100 | 95.6 | > 100
